The text below walks through data of US20260248918A1, “COMPOSITIONS AND METHODS OF SUPPRESSING AVERSIVENESS OF PHARMACEUTICALS AND INGESTIBLE MATERIALS” (Monell Chemical Senses Center, priority 2019, published 2026).

Where a name gives a salt, the structure may show the parent alone.

One assay deals with human subjects. Briefly: Human sensory testing (gLMS) of API bitterness with blocker, as pre-rinse or admixture. The note with it: added as sensory excipients to APIs. The assay is classed as in vivo. From the text:
Methods of evaluating the sensory properties of the API and admixtures with the blocker compounds of Formula A are adopted from Breslin PA, and Tharp CD, “Reduction of saltiness and bitterness after a chlorhexidine rinse,” Chem Senses. 2001 February; 26(2):105-16. More details are illustrated below.
Subjects participate in the study after providing informed consent. Gender of the subjects is balanced between male and female. The subjects are adults with ages ranging from 20 years old to 50 years old. […] The participants are asked to refrain from eating, drinking, or chewing gum for 1 hr prior to testing. Subjects are trained to use the General Labeled Magnitude Scale (gLMS) following standard published procedures. See. e.g., Breslin P A, and Tharp C D. “Reduction of saltiness and bitterness after a chlorhexidine rinse,” Chem Senses. 2001 February; 26(2): 105-16; Keast and Breslin, “Bitterness suppression with zinc sulfate and Na-cyclamate: a model of combined peripheral and central neural approaches to flavor modification.” Pharm Res. 2005 November; 22(11):1970-7. Epub 2005 Aug. 26; Green et al, “Evaluating the ‘Labeled Magnitude Scale’ for measuring sensations of taste and smell.” Chem Senses. 1996 June; 21(3):323-34; Barry G. Green, et al, “Derivation and evaluation of a semantic scale of oral sensation magnitude with apparent ratio properties,” Chemical Senses, Volume 18, Issue 6, 1 Dec. 1993, Pages 683-702; and Bartoshuk L M, “Comparing sensory experiences across individuals: recent psychophysical advances illuminate genetic variation in taste perception.” Chem Senses. 2000 August; 25(4):447-60.
The selected API (in racemic or L form as applicable) is diluted/dissolved in deionized (di) filtered water upon use into various concentrations. […] The API is prepared and dissolved in deionized filtered water or in […] 6-methylflavone to a final concentration. All solutions are stored on ice or at 4° C. to 8° C. and brought up to room temperature prior to testing.
The following testing protocol is performed. The tested solutions are provided to the subjects in random order. Subjects rinsed with di water at least four times over a 2-minute period prior to tasting each solution. The subjects are instructed to wear nose clips to eliminate olfactory input, pour the whole solution in their mouth for 3-5 seconds, and rate the perceived sensation (including bitterness, sourness, astringency, burning, stinging and nausea) intensity of the solution while it remained in the mouth, prior to expectorating. Taste intensity is recorded on a computerized gLMS, analyzed and plotted.

The target in assay [1] is T1, TAS2R39 (Homo sapiens, UniProt P59534).
T1 sequence (P59534 1-338): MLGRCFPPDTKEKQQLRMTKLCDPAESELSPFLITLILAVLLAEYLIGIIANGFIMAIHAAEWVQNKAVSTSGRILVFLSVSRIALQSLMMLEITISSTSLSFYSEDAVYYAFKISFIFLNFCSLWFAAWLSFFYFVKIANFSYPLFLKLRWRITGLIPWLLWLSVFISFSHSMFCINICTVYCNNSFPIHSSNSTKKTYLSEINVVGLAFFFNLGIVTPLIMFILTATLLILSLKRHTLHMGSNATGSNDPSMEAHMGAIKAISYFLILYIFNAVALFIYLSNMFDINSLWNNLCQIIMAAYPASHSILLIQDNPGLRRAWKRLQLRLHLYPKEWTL
Briefly: Response profile of TAS2Rs to target compounds: TAS2R39. The note with it: FIG. 4: Piperaquine 0.5 mM, Tenofovir (TAF) 1 mM, Dihydroartemisinin 2 mM (not fully dissolved). The assay is classed as cell-based. More on the design: expressed in transfected cells; host or cells: HEK. The protocol: (§1) FIG. 4 is a table showing response profiles of TAS2Rs to indicated target compounds at indicated concentrations. Praziquantel: 0.75 mM, L-praziquantel: 0.1 mM, Zinc sulfate: 20 mM, Dihydroartemisinin: 2 mM (not fully dissolved), Piperaquine, 0.5 mM, Tenofovir (TAF), 1 mM and Ritonavir, 1 mM. Symbols: + means that there was activation; a − negative sign means that there was no significant activation of the receptor; a “larger + sign” means that receptor(s) were most sensitive to the compound (activated at lower concentrations.
(§2) Using a primary hTBEC platform, a high throughput screening (HTS) was conducted with more than 2,000 small molecular weight purified phytochemicals and botanical extracts. The screen identified 40 antagonists that suppressed taste cell activation by target APIs. […] TAS2R1 is responsive to piperaquine and tenofovir. (See FIG. 4)

For the next assay, the target named is T2, TAS2R1 (Homo sapiens, UniProt Q9NYW7).
T2 sequence (Q9NYW7 1-299): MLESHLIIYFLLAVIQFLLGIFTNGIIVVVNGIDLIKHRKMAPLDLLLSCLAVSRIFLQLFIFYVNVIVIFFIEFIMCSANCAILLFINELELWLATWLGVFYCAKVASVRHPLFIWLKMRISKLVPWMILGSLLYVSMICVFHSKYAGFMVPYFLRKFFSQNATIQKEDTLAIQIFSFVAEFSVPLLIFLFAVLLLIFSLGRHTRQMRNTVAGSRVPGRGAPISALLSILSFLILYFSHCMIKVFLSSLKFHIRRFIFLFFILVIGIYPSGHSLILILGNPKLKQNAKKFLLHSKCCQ
Briefly: Response profile of TAS2Rs to target compounds: TAS2R1. It counts as cell-based. The following applies: FIG. 4: Piperaquine 0.5 mM, Tenofovir (TAF) 1 mM. The method, then: as §1, §2

The next assay concerns the target T3, TAS2R14 (Homo sapiens, UniProt Q9NYV8).
T3 sequence (Q9NYV8 1-317): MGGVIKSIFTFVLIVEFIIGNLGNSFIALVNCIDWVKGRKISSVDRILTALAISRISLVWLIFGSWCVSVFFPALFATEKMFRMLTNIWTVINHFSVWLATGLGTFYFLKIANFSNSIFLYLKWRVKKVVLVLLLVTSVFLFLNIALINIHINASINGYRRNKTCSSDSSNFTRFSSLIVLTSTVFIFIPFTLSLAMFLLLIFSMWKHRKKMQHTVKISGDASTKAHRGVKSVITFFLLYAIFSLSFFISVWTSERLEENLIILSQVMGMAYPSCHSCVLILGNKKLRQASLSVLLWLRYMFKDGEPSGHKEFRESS
Briefly: Response profile of TAS2Rs to target compounds: TAS2R14. The following applies: FIG. 4: Praziquantel 0.75 mM, L-praziquantel 0.1 mM, Dihydroartemisinin 2 mM (not fully dissolved), Piperaquine 0.5 mM, TAF 1 mM, Ritonavir 1 mM, Zinc sulfate 20 mM. It counts as cell-based. The protocol:
as §1, §2

The target in assay [2] is T1, TAS2R39. The following applies: reported in Roland et al. 2014, data not shown; cited from earlier work.

For zinc, the “Reduction of API bitterness by sensory excipients” value in the assay with human subjects is recorded as “significantly reduce”.
`CC(C)OC(=O)[C@H](C)N[P@](=O)(CO[C@H](C)Cn1cnc2c(N)ncnc21)Oc1ccccc1` [TAF, tenofovir alafenamide fumarate]: the “Activation of TAS2R39” value at TAS2R39 [1] is given as “one of the most responsive receptors”. The “Activation of TAS2R1” value at TAS2R1 is on record as “responsive”.
Regarding `O=C(C1CCCCC1)N1CC(=O)N2CCc3ccccc3[C@@H]2C1` [L-praziquantel], on TAS2R14, the “Activation of TAS2R14” value is listed as “one of most responsive receptors”.
As to sodium, in the assay on human subjects, the “Reduction of API bitterness by sensory excipients” value is “significantly reduce”.
As to `CC(C)c1nc(CN(C)C(=O)N[C@H](C(=O)N[C@@H](Cc2ccccc2)C[C@H](O)[C@H](Cc2ccccc2)NC(=O)OCc2cncs2)C(C)C)cs1` [Ritonavir], at TAS2R14, the “Activation of TAS2R14” value is “one of most responsive receptors”.
Regarding `O=C(C1CCCCC1)N1CC(=O)N2CCc3ccccc3C2C1` (racemic) [Praziquantel], the “Activation of TAS2R14” value on TAS2R14 is listed as “one of most responsive receptors”.
As to `Clc1ccc2c(N3CCN(CCCN4CCN(c5ccnc6cc(Cl)ccc56)CC4)CC3)ccnc2c1` [Piperaquine], the “Activation of TAS2R39” value on TAS2R39 [1] is listed as “one of the most responsive receptors”. Besides, the “Activation of TAS2R1” value on TAS2R1 is “responsive”.
Regarding `COc1ccc2oc(-c3ccccc3)cc(=O)c2c1` [6-methoxyflavone], the “Inhibition of hTAS2R39 activation” value on TAS2R39 [2] is “unable to inhibit”.
